Measurements taken from patent US20120178147A1, “MICROBIAL CULTURES AND METHODS FOR ANAEROBIC BIOREMEDIATION” (priority 2009, published 2012).
Several values for one entry are separate records, joined by “and”; a condition that tells them apart may be missing. Equal values may be shown once. Entries after “also recorded” stand apart in the source; their conditions may differ.

What was measured:
BDI cultures = test: TCC and TCS exposure: TCE reductive dechlorination by Bio-Dechlor INOCULUM; type: cell-based; conditions: for TCE completely dechlorinated to ethene in BDI / TCE transformed to VC in BDI: 1.5 μM TCC or 35 μM TCS, by day 27
Description: (§1) Cultures. Two cultures were used in this study: 1) Bio-Dechlor INOCULUM, which was obtained from Dr. Frank Loffler's laboratory at Georgia Tech; 2) DehaloR̂2 culture, developed from a sediment microcosm from the Chesapeake Bay “sediment core-D” with three-times continuous transfers described in Example 1.
(§2) TCC and TCS Exposure. For the TCC and TCS test, 1 ml ATCC mixed vitamin solution (Catalog No. MD-VS), 0.25 ml 20 mg/L vitamin B12 solution and 1 ml 500 mM lactate solution were filtered with a 0.2 μm sterile filter and added to 92.5 ml sterile anaerobic media in 160 ml serum bottles, and then 5 ml of culture was transferred into this fresh media. Lactate served as electron donor and carbon source. Fifty μl TCE stock solutions ([…] in methanol) were injected into the media with 500-μl Hamilton air-tight syringe (Reno, Nev.), and the final TCE concentration was 35 μmol per serum bottle. Ten μl TCC or TCS stock solutions in methanol or pure methanol was injected with 10 μl Hamilton air-tight syringe (Reno, Nev.) into the serum bottle. Three concentration levels of TCC or TCS stock solutions were made and listed in Table 8 to make the three final concentration levels of TCC or TCS. The middle concentration level of TCC and TCS in cultures was set according to the solubility of TCC and TCS at 20° C. The highest concentration of TCC and TCS is 10 times the solubility of TCC and TCS at 20° C., and the lowest concentration of TCC and TCS is 10% the solubility of TCC and TCS at 20° C.
(§3) The total aqueous volume in 160-ml serum bottle was 100 ml. Four BDI and four DehaloR̂2 cultures were generated for each concentration of TCC or TCS, and three of them were used for TCE dechlorination analysis and the other one was used for DNA extractions and molecular analysis. The error bars in the figures are the standard deviations for three independent cultures under the same conditions.
(§4) All cultures were stored in the dark and incubated at 30° C.
(§5) Analytical Methods. The concentrations of TCE and their reductive-dechlorinating byproducts, 1,1-DCE, cis-DCE, trans-DCE, VC, and ethene were quantified by gas chromatography with a flame ionization detector (GC-FID).
(§6) 200 μl headspace gas samples were withdrawn from 160 ml serum bottle with 500 μl gas-tight syringes (Hamilton Company, Reno, Nev.) and analyzed by a Shimadzu GC-2010 (Columbia, Md.) with an Rt™-QSPLOT capillary column (30 m×0.32 mm×10 μm, Restek, Bellefonte, Pa.) and a flame ionization detector (FID). The initial oven temperature was 110° C. and was held constant for 5 min. Then the temperature was raised with a gradient of 10° C./min to 150° C., a second gradient at 20° C./min to 200° C., and a third gradient of 5° C./min to 220° C. At the end of this gradient, the oven temperature was held constant at 220° C. for 5 min. The temperature of FID and injector were 240° C. Ultra high purity helium was the carrier gas for the GC. Ultra high purity hydrogen and zero grade air were used for the FID.
(§7) Calibration curves for chlorinated compounds were determined based on the known mass of PCE, TCE, 1,1-DCE, cis-DCE and trans-DCE added to 160 ml serum bottles containing 100 ml of distilled-deionized water and equilibrated at 25° C. overnight. The contents were then analyzed using the Shimadzu GC-FID. Different volumes of 100 ppm and 1000 ppm VC and ethene gas were injected directly into GC using the 500 μl airtight syringe to make their calibration curves. The aqueous concentrations of PCE, TCE and their reaction products were calculated by using reported Henry's constants on the EPA website (Washington and Weaver, 2006)

[1] = anaerobic conditions, within 70 days; cited from earlier work
[2] = at 25° C., pH 7; cited from earlier work
DehaloR̂2 cultures = test: TCC and TCS exposure: TCE reductive dechlorination by DehaloR̂2 culture; type: cell-based; conditions: for TCE completely dechlorinated into ethene in the 22-day period in DehaloR̂2: 1.5 μM TCC (32 μmol TCE) or 35 μM TCS
Description: as §1, §2, §3
The TCC and TCS tests on DehaloR̂2 culture were only dosed with the highest and middle concentrations of TCC and TCS, which are 1.5 μM TCC, 0.15 μM TCC, 35 μM TCS and 3.5 μM TCS, respectively.
as §4, §5, §6, §7

[3] = highest level: 1.5 μM TCC or 35 μM TCS
[4] = lowest level: 0.015 μM TCC or 0.35 μM TCS
[5] = middle level: 0.15 μM TCC or 3.5 μM TCS

O=C(Nc1ccc(Cl)cc1)Nc1ccc(Cl)c(Cl)c1 [TCC, 3-(4-chlorophenyl)-1-(3,4-dichlorphenyl) urea]
TCE completely dechlorinated to ethene in BDI (BDI cultures): 10%
TCE transformed to VC in BDI (BDI cultures): 90%
Maximum formation rate Ethene in BDI (BDI cultures; highest level: 1.5 μM TCC): 0.19 μmol vial^−1 day^−1
Maximum formation rate VC in BDI (BDI cultures; [3]): 1.65 μmol vial^−1 day^−1
Maximum formation rate cis-DCE in BDI (BDI cultures; [3]): 3.94 μmol vial^−1 day^−1
Maximum utilization rate TCE in BDI (BDI cultures; [3]): 4.22 μmol vial^−1 day^−1
Maximum utilization rate cis-DCE in BDI (BDI cultures; [3]): 1.29 μmol vial^−1 day^−1
effect on TCE reductive dechlorination in BDI cultures (BDI cultures; [3]): significantly inhibited TCE reductive dechlorination
Maximum formation rate Ethene in BDI (BDI cultures; [4]): 2.32 μmol vial^−1 day^−1
Maximum formation rate VC in BDI (BDI cultures; [4]): 1.11 μmol vial^−1 day^−1
Maximum formation rate cis-DCE in BDI (BDI cultures; [4]): 7.98 μmol vial^−1 day^−1
Maximum utilization rate TCE in BDI (BDI cultures; [4]): 9.23 μmol vial^−1 day^−1
Maximum utilization rate VC in BDI (BDI cultures; [4]): 1.35 μmol vial^−1 day^−1
Maximum utilization rate cis-DCE in BDI (BDI cultures; [4]): 2.99 μmol vial^−1 day^−1
effect on TCE reductive dechlorination in BDI cultures (BDI cultures; [4]): had no influence on TCE reductive dechlorination; also recorded: did not show any obvious effect
Maximum formation rate Ethene in BDI (BDI cultures; [5]): 3.3 μmol vial^−1 day^−1
Maximum formation rate VC in BDI (BDI cultures; [5]): 1.38 μmol vial^−1 day^−1
Maximum formation rate cis-DCE in BDI (BDI cultures; [5]): 7.04 μmol vial^−1 day^−1
Maximum utilization rate TCE in BDI (BDI cultures; [5]): 7.47 μmol vial^−1 day^−1
Maximum utilization rate VC in BDI (BDI cultures; [5]): 0.33 μmol vial^−1 day^−1
Maximum utilization rate cis-DCE in BDI (BDI cultures; [5]): 2.6 μmol vial^−1 day^−1
effect on TCE reductive dechlorination in BDI cultures (BDI cultures; [5]): did not show any obvious effect
biodegradation in soil [1]: little biodegradation
Partition Coefficient [2]: 4.9 Log Pow
time for complete TCE reductive dechlorination in DehaloR̂2 (DehaloR̂2 cultures; 0.15 μM TCC): approximately 22 days
time for reductive dechlorination of 80% of 33 μmol TCE into ethene in DehaloR̂2 (DehaloR̂2 cultures; 0.15 μM TCC): 11 days
time for reductive dechlorination of TCE to cis-DCE in DehaloR̂2 (DehaloR̂2 cultures; 1.5 μM TCC): about 4 days
TCE completely dechlorinated into ethene in the 22-day period in DehaloR̂2 (DehaloR̂2 cultures): About 46%
Maximum formation rate Ethene in DehaloR̂2 (SCD) (DehaloR̂2 cultures; highest level: 1.5 μM TCC): 1.08 μmol vial^−1 day^−1
Maximum utilization rate VC in DehaloR̂2 (SCD) (DehaloR̂2 cultures; highest level: 1.5 μM TCC): 1.48 μmol vial^−1 day^−1
Maximum utilization rate cis-DCE in DehaloR̂2 (SCD) (DehaloR̂2 cultures; highest level: 1.5 μM TCC): 9.55 μmol vial^−1 day^−1
Maximum formation rate VC in DehaloR̂2 (SCD) (DehaloR̂2 cultures; [3]): 8.12 μmol vial^−1 day^−1
Maximum formation rate cis-DCE in DehaloR̂2 (SCD) (DehaloR̂2 cultures; [3]): 12.83 μmol vial^−1 day^−1
Maximum utilization rate TCE in DehaloR̂2 (SCD) (DehaloR̂2 cultures; [3]): 9.54 μmol vial^−1 day^−1
effect on TCE reductive dechlorination in DehaloR̂2 cultures (DehaloR̂2 cultures; [3]): significantly inhibited TCE reductive dechlorination
Maximum formation rate Ethene in DehaloR̂2 (SCD) (DehaloR̂2 cultures; [5]): 8.54 μmol vial^−1 day^−1
Maximum formation rate VC in DehaloR̂2 (SCD) (DehaloR̂2 cultures; [5]): 6.72 μmol vial^−1 day^−1
Maximum formation rate cis-DCE in DehaloR̂2 (SCD) (DehaloR̂2 cultures; [5]): 23.87 μmol vial^−1 day^−1
Maximum utilization rate TCE in DehaloR̂2 (SCD) (DehaloR̂2 cultures; [5]): 20.45 μmol vial^−1 day^−1
Maximum utilization rate VC in DehaloR̂2 (SCD) (DehaloR̂2 cultures; [5]): 6.01 μmol vial^−1 day^−1
Maximum utilization rate cis-DCE in DehaloR̂2 (SCD) (DehaloR̂2 cultures; [5]): 6.40 μmol vial^−1 day^−1
effect on TCE reductive dechlorination in DehaloR̂2 cultures (DehaloR̂2 cultures; [5]): slowed down the TCE reductive dechlorination process

Oc1cc(Cl)ccc1Oc1ccc(Cl)cc1Cl [TCS, 5-chloro-2-[2,4-dichloro-phenoxy]-phenol]
TCE completely dechlorinated to ethene in BDI (BDI cultures): no ethene was produced
TCE transformed to VC in BDI (BDI cultures): 7%
VC produced in BDI (BDI cultures; 35 μM TCS): 3.6 µmol
TCE not dechlorinated in BDI (BDI cultures; 35 μM TCS, 27-day experiment): approximately 9%
TCE transformed to cis-DCE in BDI (BDI cultures; 35 μM TCS, within 27 days): 84%
Maximum formation rate VC in BDI (BDI cultures; [3]): 1.21 μmol vial^−1 day^−1
Maximum formation rate cis-DCE in BDI (BDI cultures; [3]): 6.41 μmol vial^−1 day^−1
Maximum utilization rate TCE in BDI (BDI cultures; [3]): 8.75 μmol vial^−1 day^−1
Maximum utilization rate cis-DCE in BDI (BDI cultures; [3]): 0.11 μmol vial^−1 day^−1
effect on TCE reductive dechlorination in BDI cultures (BDI cultures; [3]): significantly inhibited TCE reductive dechlorination
Maximum formation rate Ethene in BDI (BDI cultures; [4]): 2.61 μmol vial^−1 day^−1
Maximum formation rate VC in BDI (BDI cultures; [4]): 1.14 μmol vial^−1 day^−1
Maximum formation rate cis-DCE in BDI (BDI cultures; [4]): 6.69 μmol vial^−1 day^−1
Maximum utilization rate TCE in BDI (BDI cultures; [4]): 9.58 μmol vial^−1 day^−1
Maximum utilization rate VC in BDI (BDI cultures; [4]): 1.14 μmol vial^−1 day^−1
Maximum utilization rate cis-DCE in BDI (BDI cultures; [4]): 2.72 μmol vial^−1 day^−1
effect on TCE reductive dechlorination in BDI cultures (BDI cultures; [4]): had no influence on TCE reductive dechlorination; also recorded: did not show any obvious effect
Maximum formation rate Ethene in BDI (BDI cultures; [5]): 3.95 μmol vial^−1 day^−1
Maximum formation rate VC in BDI (BDI cultures; [5]): 1.54 μmol vial^−1 day^−1
Maximum formation rate cis-DCE in BDI (BDI cultures; [5]): 7.24 μmol vial^−1 day^−1
Maximum utilization rate TCE in BDI (BDI cultures; [5]): 9.36 μmol vial^−1 day^−1
Maximum utilization rate VC in BDI (BDI cultures; [5]): 0.62 μmol vial^−1 day^−1
Maximum utilization rate cis-DCE in BDI (BDI cultures; [5]): 2.39 μmol vial^−1 day^−1 and 2.4 μmol vial^−1 day^−1
effect on TCE reductive dechlorination in BDI cultures (BDI cultures; [5]): did not show any obvious effect
biodegradation in soil [1]: little biodegradation
Partition Coefficient [2]: 4.8 Log Pow
TCE completely dechlorinated into ethene in the 22-day period in DehaloR̂2 (DehaloR̂2 cultures): no ethene was produced
time for TCE reductive dechlorination to cis-DCE in DehaloR̂2 (DehaloR̂2 cultures; 3.5 μM TCS): about 4 days
TCE completely dechlorinated into ethene at the 18th day in DehaloR̂2 (DehaloR̂2 cultures; 3.5 μM TCS, 34 μmol TCE): 79%
TCE transformed into VC within 22 days in DehaloR̂2 (DehaloR̂2 cultures; 35 μM TCS): 1%
Maximum formation rate VC in DehaloR̂2 (SCD) (DehaloR̂2 cultures; [3]): 0.11 μmol vial^−1 day^−1
Maximum formation rate cis-DCE in DehaloR̂2 (SCD) (DehaloR̂2 cultures; [3]): 5.59 μmol vial^−1 day^−1
Maximum utilization rate TCE in DehaloR̂2 (SCD) (DehaloR̂2 cultures; [3]): 5.90 μmol vial^−1 day^−1
effect on TCE reductive dechlorination in DehaloR̂2 cultures (DehaloR̂2 cultures; [3]): significantly inhibited TCE reductive dechlorination
Maximum formation rate Ethene in DehaloR̂2 (SCD) (DehaloR̂2 cultures; [5]): 3.11 μmol vial^−1 day^−1
Maximum formation rate VC in DehaloR̂2 (SCD) (DehaloR̂2 cultures; [5]): 8.99 μmol vial^−1 day^−1
Maximum formation rate cis-DCE in DehaloR̂2 (SCD) (DehaloR̂2 cultures; [5]): 8.79 μmol vial^−1 day^−1
Maximum utilization rate TCE in DehaloR̂2 (SCD) (DehaloR̂2 cultures; [5]): 13.47 μmol vial^−1 day^−1
Maximum utilization rate VC in DehaloR̂2 (SCD) (DehaloR̂2 cultures; [5]): 1.96 μmol vial^−1 day^−1
Maximum utilization rate cis-DCE in DehaloR̂2 (SCD) (DehaloR̂2 cultures; [5]): 9.10 μmol vial^−1 day^−1
effect on TCE reductive dechlorination in DehaloR̂2 cultures (DehaloR̂2 cultures; [5]): slowed down the TCE reductive dechlorination process
